In patent publication USRE49850E1, “N-(pyridin-2-yl)-4-(thiazol-5-yl)pyrimidin-2-amine derivatives as therapeutic compounds” (AUCENTRA THERAPEUTICS PTY LTD, priority 2015, dated 2024) one finds GI50 and Ki data, which are given here for five compounds.

Bounds are passed on as bounds.

The subject of one experiment is KG-1. Nature of the experiment: Cell viability assay, leukemia KG-1. It counts as cell-based. To be noted: Homo sapiens, 72 h, read-out: Antiproliferative activity GI50 KG-1. From the text: (§1) Compounds from Example 1 were subjected to a standard MTT (3-(4,5-dimethylthiazol-2-yl)-2,5-diphenyltetrazolium bromide) and resazurin assays on solid tumour cell lines and leukemia cell lines, respectively, as previously reported (Wang S et al., J Med Chem 47:1662-1675, 2004 and Diab S. et al. CheMedChem 9:962-972, 2014).

The subject of the next experiment is MDA-MB-453. Nature of the experiment: Cell viability assay (MTT, solid tumour cell line) MDA-MB-453. It counts as cell-based, human. The settings on record: Homo sapiens, MDA-MB-453, 72 h; read-out: Anti-proliferative activity GI50 MDA-MB-453.
Text: as §1

In the next experiment the target is T1, CDK4D1 (Homo sapiens, UniProt P11802).
T1 construct: purchased Eurofins Pharma Discovery or Reaction Biology Corporation (service)
T1 sequence (P11802 whole entry): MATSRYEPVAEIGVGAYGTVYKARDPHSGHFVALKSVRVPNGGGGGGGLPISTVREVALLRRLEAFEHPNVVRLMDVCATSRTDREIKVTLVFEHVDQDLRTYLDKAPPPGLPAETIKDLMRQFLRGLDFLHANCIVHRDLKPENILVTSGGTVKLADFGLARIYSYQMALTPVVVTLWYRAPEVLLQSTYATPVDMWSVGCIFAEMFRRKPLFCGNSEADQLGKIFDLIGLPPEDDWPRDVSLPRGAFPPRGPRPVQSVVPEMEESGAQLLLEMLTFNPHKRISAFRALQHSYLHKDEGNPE
T1 sequence (P24385 whole entry partner): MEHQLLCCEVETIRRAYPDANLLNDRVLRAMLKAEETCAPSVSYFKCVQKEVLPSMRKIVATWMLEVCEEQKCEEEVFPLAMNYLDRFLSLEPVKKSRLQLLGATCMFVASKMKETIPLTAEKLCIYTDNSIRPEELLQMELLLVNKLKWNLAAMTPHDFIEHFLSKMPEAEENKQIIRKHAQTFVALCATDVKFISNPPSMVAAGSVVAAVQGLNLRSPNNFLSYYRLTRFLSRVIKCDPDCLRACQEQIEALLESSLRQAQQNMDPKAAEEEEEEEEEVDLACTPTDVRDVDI
Nature of the experiment: Kinase assay CDK4/D1 (radiometric or ADP Glo). The experiment is classed as biochemical. To be noted: apparent Ki calculated from Km (ATP) and IC50; read-out: CDK inhibition Ki CDK4D1. The method, boiled down:
(§2)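 In-house CDK4/D1 ADP-Glo: RB-CTF substrate, buffer […] pH 7.5/20 mM MgCl2/0.4 mM DTT/0.1 mg/ml BSA, ATP-initiated 40 min reaction at 37 °C, luminescence read-out; compounds tested from 10 μM to 0.5 nM in ten 1:3 steps. CDK7H, CDK2A and CDK1B plus alternative CDK4/D1 values measured radiometrically by external profilers; IC50 by logistic fit, apparent Ki via ATP Km.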

Another experiment concerns MV4-11. The experiment is described as follows: Cell viability assay (resazurin, leukemia cell line) MV4-11. It counts as cell-based, human. To be noted: Homo sapiens, MV4-11, 72 h; read-out: Anti-proliferative activity GI50 MV4-11.
Text: as §1
(The colour change of resazurin is a common sign of viable cells or microbes.)

The target of a further experiment is T2, CDK6D3 (Homo sapiens, UniProt Q00534).
T2 construct: purchased Eurofins Pharma Discovery or Reaction Biology Corporation (service)
T2 sequence (Q00534 whole entry): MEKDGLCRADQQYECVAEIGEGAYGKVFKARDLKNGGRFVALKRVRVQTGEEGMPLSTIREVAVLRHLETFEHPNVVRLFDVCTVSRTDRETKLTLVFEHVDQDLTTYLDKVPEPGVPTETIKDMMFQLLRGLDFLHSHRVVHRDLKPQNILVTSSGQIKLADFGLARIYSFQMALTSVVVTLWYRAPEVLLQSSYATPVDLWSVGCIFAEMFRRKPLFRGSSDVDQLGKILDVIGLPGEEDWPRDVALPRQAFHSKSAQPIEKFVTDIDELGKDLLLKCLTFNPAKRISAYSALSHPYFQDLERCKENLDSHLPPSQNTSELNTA
T2 sequence (P30281 whole entry partner): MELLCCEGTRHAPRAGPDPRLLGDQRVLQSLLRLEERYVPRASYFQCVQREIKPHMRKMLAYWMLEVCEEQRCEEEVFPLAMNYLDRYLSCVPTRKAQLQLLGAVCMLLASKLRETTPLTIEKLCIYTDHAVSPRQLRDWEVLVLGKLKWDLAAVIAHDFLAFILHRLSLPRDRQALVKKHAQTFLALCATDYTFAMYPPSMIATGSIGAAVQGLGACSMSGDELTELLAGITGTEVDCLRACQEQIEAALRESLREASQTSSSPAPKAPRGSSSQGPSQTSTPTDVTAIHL
The experiment is described as follows: Kinase assay CDK6/D3 (radiometric or ADP Glo). The settings on record: apparent Ki calculated from Km (ATP) and IC50; read-out: CDK inhibition Ki CDK6D3. The experiment is classed as biochemical. The method in brief:
(§3)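 Radiometric inhibition data for CDKs came from Eurofins or Reaction Biology profiling services; CDK4/D1 was also run in-house by ADP-Glo in […] pH 7.5, 20 mM MgCl2, 0.4 mM DTT, 0.1 mg/ml BSA with RB-CTF substrate, 40 min at 37 °C after ATP start. Ten-point 1:3 dilutions (10 μM–0.5 nM); four-parameter IC50, Ki from IC50 and ATP Km.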

The subject of the next experiment is MOLM-13. The experiment is described as follows: Cell viability assay, leukemia MOLM-13. The experiment is classed as cell-based. The settings on record: Homo sapiens, 72 h, read-out: Antiproliferative activity GI50 MOLM-13.
Text: as §1

In a further experiment the target is T3, CDK9T1 (Homo sapiens, UniProt P50750).
T3 construct: purchased Eurofins Pharma Discovery or Reaction Biology Corporation (service)
T3 sequence (P50750 whole entry): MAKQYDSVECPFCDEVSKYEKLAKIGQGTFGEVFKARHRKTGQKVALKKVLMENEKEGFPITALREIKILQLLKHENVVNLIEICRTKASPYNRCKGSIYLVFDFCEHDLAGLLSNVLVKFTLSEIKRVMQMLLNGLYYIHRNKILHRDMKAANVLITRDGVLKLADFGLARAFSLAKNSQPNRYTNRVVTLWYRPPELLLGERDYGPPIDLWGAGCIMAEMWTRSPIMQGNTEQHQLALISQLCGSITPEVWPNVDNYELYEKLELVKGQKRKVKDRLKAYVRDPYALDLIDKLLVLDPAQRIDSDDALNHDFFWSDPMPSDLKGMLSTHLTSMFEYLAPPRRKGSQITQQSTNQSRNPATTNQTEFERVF
T3 sequence (O60563 whole entry partner): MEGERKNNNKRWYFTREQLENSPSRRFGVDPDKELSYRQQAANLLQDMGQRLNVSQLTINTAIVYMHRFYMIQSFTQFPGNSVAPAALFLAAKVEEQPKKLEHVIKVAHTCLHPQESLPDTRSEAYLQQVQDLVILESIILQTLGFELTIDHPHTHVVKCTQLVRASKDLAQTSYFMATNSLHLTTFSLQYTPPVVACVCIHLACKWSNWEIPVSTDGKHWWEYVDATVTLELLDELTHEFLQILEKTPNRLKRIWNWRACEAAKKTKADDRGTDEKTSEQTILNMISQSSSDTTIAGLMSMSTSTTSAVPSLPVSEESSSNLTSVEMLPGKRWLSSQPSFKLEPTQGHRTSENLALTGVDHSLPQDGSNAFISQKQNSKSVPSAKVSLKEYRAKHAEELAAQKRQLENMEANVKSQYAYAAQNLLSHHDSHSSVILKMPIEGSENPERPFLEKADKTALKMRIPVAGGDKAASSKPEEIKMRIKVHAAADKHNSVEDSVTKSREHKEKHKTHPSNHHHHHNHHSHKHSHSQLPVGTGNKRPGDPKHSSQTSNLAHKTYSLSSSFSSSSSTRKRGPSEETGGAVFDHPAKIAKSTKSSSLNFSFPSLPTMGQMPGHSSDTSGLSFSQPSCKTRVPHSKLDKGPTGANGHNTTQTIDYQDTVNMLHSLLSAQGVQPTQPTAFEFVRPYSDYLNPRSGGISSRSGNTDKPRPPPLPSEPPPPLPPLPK
The experiment is described as follows: Kinase assay CDK9/T1 (radiometric or ADP Glo). To be noted: apparent Ki calculated from Km (ATP) and IC50; read-out: CDK inhibition Ki CDK9T1. It counts as biochemical. The method in brief: as §3

The target of another experiment is CDK1B (Homo sapiens, UniProt P06493). Nature of the experiment: Kinase assay CDK1B (radiometric profiling service). The settings on record: apparent Ki calculated from Km (ATP) and IC50; read-out: CDK inhibition Ki CDK1B. It counts as biochemical. The method, boiled down: as §2
Chain of CDK1B (P06493 whole entry): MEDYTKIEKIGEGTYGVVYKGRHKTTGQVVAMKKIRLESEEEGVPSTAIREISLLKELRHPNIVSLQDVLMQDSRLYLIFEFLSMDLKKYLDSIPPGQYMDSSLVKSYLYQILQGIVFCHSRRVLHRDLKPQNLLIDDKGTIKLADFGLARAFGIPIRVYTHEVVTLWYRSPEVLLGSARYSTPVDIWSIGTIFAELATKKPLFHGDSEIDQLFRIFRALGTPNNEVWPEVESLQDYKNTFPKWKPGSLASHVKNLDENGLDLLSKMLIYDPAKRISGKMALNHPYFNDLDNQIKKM
Chain of CDK1B (P14635 whole entry partner): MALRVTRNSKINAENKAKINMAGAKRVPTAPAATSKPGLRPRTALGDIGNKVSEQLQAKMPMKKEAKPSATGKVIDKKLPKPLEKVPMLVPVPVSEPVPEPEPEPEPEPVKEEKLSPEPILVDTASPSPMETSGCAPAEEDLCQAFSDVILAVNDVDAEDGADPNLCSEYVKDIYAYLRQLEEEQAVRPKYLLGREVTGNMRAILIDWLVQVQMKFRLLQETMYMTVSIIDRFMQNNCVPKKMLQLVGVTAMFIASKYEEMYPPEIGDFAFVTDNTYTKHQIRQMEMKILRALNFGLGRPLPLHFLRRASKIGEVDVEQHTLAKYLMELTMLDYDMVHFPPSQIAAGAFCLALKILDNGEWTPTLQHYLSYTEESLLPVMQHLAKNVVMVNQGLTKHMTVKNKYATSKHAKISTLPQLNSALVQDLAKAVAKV
A further experiment has as its target CDK7H (Homo sapiens, UniProt P50613). Nature of the experiment: Kinase assay CDK7H (radiometric profiling service). It counts as biochemical. The settings on record: apparent Ki calculated from Km (ATP) and IC50; read-out: CDK inhibition Ki CDK7H. The method in brief:
as §2

For another experiment, the target named is CDK 2A (Homo sapiens, UniProt P24941). Nature of the experiment: Kinase assay CDK2A (radiometric profiling service). The settings on record: apparent Ki calculated from Km (ATP) and IC50; read-out: CDK inhibition Ki CDK 2A. It counts as biochemical. The method, boiled down:
as §2

A further experiment deals with A2780. Nature of the experiment: Cell viability assay, ovarian A2780. It counts as cell-based. The settings on record: Homo sapiens, A2780; 72 h, Ovarian; read-out: Antiproliferative activity GI50 A2780.
Text: as §1

The next experiment relates to D283. Nature of the experiment: Cell viability assay, medulloblastoma D283. The experiment is classed as cell-based. To be noted: Homo sapiens, D283; 72 h, Medulloblastoma; read-out: Antiproliferative activity GI50 D283.
Text: as §1

The test system of the next experiment is D458. Nature of the experiment: Cell viability assay, medulloblastoma D458. It counts as cell-based. The settings on record: Homo sapiens; 72 h, Medulloblastoma; read-out: Antiproliferative activity GI50 D458.
Text: as §1

Chain of CDK7H (P50613 whole entry): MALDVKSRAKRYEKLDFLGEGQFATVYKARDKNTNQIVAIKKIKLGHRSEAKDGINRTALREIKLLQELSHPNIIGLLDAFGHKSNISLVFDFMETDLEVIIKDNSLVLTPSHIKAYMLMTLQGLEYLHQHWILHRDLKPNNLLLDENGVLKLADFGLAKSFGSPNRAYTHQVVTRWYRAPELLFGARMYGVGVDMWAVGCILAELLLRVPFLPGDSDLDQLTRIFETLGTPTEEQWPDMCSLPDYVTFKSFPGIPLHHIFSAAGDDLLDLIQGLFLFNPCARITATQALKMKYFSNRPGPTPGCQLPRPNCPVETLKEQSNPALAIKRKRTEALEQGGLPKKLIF
Chain of CDK7H (P51946 whole entry partner): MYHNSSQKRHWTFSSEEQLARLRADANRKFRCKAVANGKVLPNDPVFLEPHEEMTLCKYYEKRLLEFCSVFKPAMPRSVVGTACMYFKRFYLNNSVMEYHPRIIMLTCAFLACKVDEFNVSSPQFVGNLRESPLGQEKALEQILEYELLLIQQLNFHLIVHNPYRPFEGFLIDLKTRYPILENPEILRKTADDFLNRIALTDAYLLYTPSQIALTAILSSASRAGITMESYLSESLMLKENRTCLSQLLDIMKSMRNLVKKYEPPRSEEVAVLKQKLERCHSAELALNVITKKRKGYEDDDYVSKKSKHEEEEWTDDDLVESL
Chain of CDK7H (P51948 whole entry partner): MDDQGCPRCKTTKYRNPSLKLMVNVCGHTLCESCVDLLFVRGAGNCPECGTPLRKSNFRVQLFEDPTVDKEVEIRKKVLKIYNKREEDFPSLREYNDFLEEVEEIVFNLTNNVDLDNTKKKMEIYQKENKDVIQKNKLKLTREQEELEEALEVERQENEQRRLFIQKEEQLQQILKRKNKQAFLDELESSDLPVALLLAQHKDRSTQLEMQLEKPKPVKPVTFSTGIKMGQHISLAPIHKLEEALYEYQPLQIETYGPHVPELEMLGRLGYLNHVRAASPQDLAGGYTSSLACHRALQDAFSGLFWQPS

Turning to `CCc1nc(C)c(-c2ccnc(Nc3ccc(N4CCN(CC)CC4)cn3)n2)s1` [Compound 9, 4-(2-ethyl-4-methylthiazol-5-yl)-N-(5-(4-ethylpiperazin-1-yl)pyridin-2-yl)pyrimidin-2-amine], the GI50 in the experiment on KG-1 worked out at 47 ± 15 nM; with MDA-MB-453 it was 3320 ± 576 nM; in the experiment with MV4-11, 591 ± 83 nM; in the experiment with MOLM-13, 293 ± 28 nM. Moreover, the Ki at CDK4D1 is 10 nM; on CDK6D3, 1670 nM; at CDK9T1, greater than 5000 nM; on CDK1B, greater than 5000 nM; on CDK7H, greater than 5000 nM; at CDK 2A, 1800 nM.

In the case of `Cc1nc(N(C)C2CCCC2)sc1-c1ccnc(Nc2ccc(N3CCN(C)CC3)cn2)n1` [Compound 86, N-cyclopentyl-N,4-dimethyl-5-(2-((5-(4-methylpiperazin-1-yl)pyridin-2-yl)amino)pyrimidin-4-yl)thiazol-2-amine], the GI50 was determined as 72 ± 20 nM in the experiment on A2780; 358 ± 100 nM in the experiment with D283; 3360 ± 286 nM in the experiment on MDA-MB-453; 617 ± 112 nM in the experiment with D458; 20 ± 15 nM with MV4-11. The Ki at CDK4D1 was 2 nM; on CDK6D3, 10 nM; on CDK9T1 it was 1800 nM; at CDK1B, greater than 5000 nM; at CDK7H it was greater than 5000 nM; on CDK 2A, 476 nM.

With `CNc1nc(C)c(-c2nc(Nc3ccc(N4CCN(C)CC4)cn3)ncc2F)s1` [Compound 31, 5-(5-fluoro-2-((5-(4-methylpiperazin-1-yl)pyridin-2-yl)amino)pyrimidin-4-yl)-N,4-dimethylthiazol-2-amine], the GI50 amounted to 94 ± 1 nM in the experiment with A2780; 489 ± 22 nM with D283; 381 ± 96 nM in the experiment on MDA-MB-453; 645 ± 97 nM in the experiment on D458; 11 ± 4 nM in the experiment on MV4-11. Also, the Ki is 2 nM at CDK4D1; 10 nM on CDK6D3; 1910 nM at CDK9T1; greater than 5000 nM at CDK1B; greater than 5000 nM on CDK7H; 365 nM on CDK 2A.

`CNc1nc(C)c(-c2nc(Nc3ccc(N4CCC(N(C)C)CC4)cn3)ncc2F)s1` [Compound 47, 5-(2-((5-(4-(dimethylamino)piperidin-1-yl)pyridin-2-yl)amino)-5-fluoropyrimidin-4-yl)-N,4-dimethylthiazol-2-amine]: the GI50 in the experiment on KG-1 worked out at 6 ± 1 nM; with MDA-MB-453 it was 349 ± 36 nM; with MV4-11 it was 107 ± 22 nM; with MOLM-13 it was 76 ± 8 nM. In addition, the Ki on CDK4D1 is 2 nM; on CDK6D3, 279 nM; at CDK9T1 it was greater than 5000 nM; at CDK1B, greater than 5000 nM; at CDK7H, greater than 5000 nM; on CDK 2A, 3340 nM.

`Cc1nc(N(C)C)sc1-c1nc(Nc2ccc(N3CCN(C)CC3)cn2)ncc1F` [Compound 46, 5-(5-fluoro-2-((5-(4-methylpiperazin-1-yl)pyridin-2-yl)amino)pyrimidin-4-yl)-N,N,4-trimethylthiazol-2-amine]: the 50% growth inhibitory concentration (GI50) is 5 ± 4 nM with KG-1, 638 ± 42 nM with MDA-MB-453, 73 ± 10 nM in the experiment with MV4-11 and 98 ± 12 nM in the experiment with MOLM-13. In addition, the Ki at CDK4D1 was 2 nM; on CDK6D3 it was 55 nM; on CDK9T1, 4360 nM; on CDK1B it was greater than 5000 nM; on CDK7H, greater than 5000 nM; at CDK 2A it was 1390 nM.

The GI50 is the concentration that inhibits growth by half.
